The record followed here is US20050261164A1, “Remedy for urinary frequency and urinary incontinence” (FUJISAWA PHARMACEUTICAL CO., LTD., priority 2002, published 2005).

This assay has as its system rhythmic bladder contraction, male SD rats. As to the kind of experiment: rhythmic bladder contraction model of a rat (frequent urination model). In kind it is in vivo. As to conditions: urethane-anesthetized male SD rats, intravenous, 0 to 10 minutes after the administration. As to the method:
Male SD rats (7 to 10 weeks old, Japan SLC) were anesthetized with urethane (1 to 1.2 g/kg, intraperitoneal administration) and their lower abdomen were opened along the midline. After performing a small dissection at the apex of the bladder, a cannula (Hibiki, size 5) attached with a balloon of about 1 ml volume was inserted into the bladder. A cannula for drug administration (PE50, Becton Dickinson) was inserted into the femoral vein. The cannula for measuring intravesical pressure was connected to a pressure transducer attached with a three-way cock and water was injected into the balloon from a free opening of the three-way cock to cause rhythmic bladder contraction. The intravesical pressure at that time was recorded by a thermal recorder (Recti-Horiz8K, NEC Sanei) via an amplifier (AP-601G, Nihon Kohden). The bladder contractile frequency and force were measured every 10 minutes before the administration of a test compound and for 0 to 10 and 10 to 20 minutes after the administration. Statistical analysis was performed using randomized block analysis of variance and Dunnett's multiple comparison with respect to the measurement values obtained before the administration.

Structures can show the parent of a compound that is named as a salt.

As to `CC(C)c1ccc(C(=O)NC(=N)N)cc1S(C)(=O)=O.CS(=O)(=O)O` [test compound 1, 4-isopropyl-3-methylsulfonylbenzoyl guanidine methanesulfonate], where the note is “3.2 mg/kg”, the “effect on bladder contractile force” value is on record as “without significantly affecting”. Moreover, the “bladder contractile frequency, % of the value obtained before the administration” value (3.2 mg/kg, p<0.01) is reported as 25%.
Take “(2,3-dihydro-9-methanesulfonyl-1-benzoxepin-4-carbonyl)guanidine dihydrochloride [test compound 3]”: the “effect on bladder contractile force” value (1 mg/kg) was “without significantly affecting”. Further, under “1 mg/kg, p<0.05”, the “bladder contractile frequency, % of the value obtained before the administration” value is recorded as 41%.
The matching figures for `CN(C)CCNC(=O)c1cc(C(=O)N=C(N)N)cc(-c2cc(Cl)sc2Cl)c1` [test compound 2, [5-(2,5-dichlorothiophene-3-yl)-3-[(2-dimethylaminoethyl)carbamoyl]benzoyl]guanidine dihydrochloride]: “without significantly affecting” and 22%.
